The values below come from patent US20220370546A1, “PEPTIDE, COMPOSITION, AND METHOD FOR TREATING, PREVENTING, OR AMELIORATING MOOD DISORDER” (KYOTO UNIVERSITY, priority 2019, published 2022).

The subject of this assay is ddY mice. In words: Tail suspension test (evaluation of motivation-enhancing effect). Particulars: oral, in saline, n=5; 0.2 μmol/kg body weight; tail suspension test 30 minutes after administration. In kind it is in vivo. As to the method: Each of the prepared peptides was administered to mice (ddY mice (5-week-old male mice 24 to 28 g in body weight)) by the method shown below. The mice were then subjected to a tail suspension test for the evaluation of a motivation-enhancing effect.
Each peptide was dissolved in saline. The solution was orally administered to mice (n=5) such that each of peptides 3, 4, and 8 was administered in a dose of 0.3 mg/kg body weight and each of peptides 1, 2, 5, 6, and 7 was administered in a dose of 0.2 μmol/kg body weight. Control mice (n=5) were orally administered with only saline. Each of the mice was subjected to a tail suspension test in which the peptide of the present invention was evaluated for its efficacy to enhance motivation.
Thirty minutes after the administration of the peptide, each mouse was suspended with its tail fixed 30 cm above the floor. Subsequently, during a period of 6 minutes from the start of the test (0 minutes), the time (immobility time) during which the mouse remained in a motionless state, observed after the start of escape behavior, was measured, and the measurements were averaged. The motionless state is known as “despair state”. […] This means that materials effective in enhancing motivation in this test may be effective in treating, preventing, or ameliorating mood disorders. […]

For QSQ [Peptide 1], the motivation-enhancing effect entry was “particularly high level of motivation-enhancing effect”. The value for SQK [Peptide 2] was “particularly high level of motivation-enhancing effect”.
